Reference: US10195147B1, “Dry powder compositions with magnesium stearate” (OTITOPIC INC., priority 2017, dated 2019)
“And” between values parts separate entries of the source, which are not always exact repeats. Identical values can stand only once.

What was measured:
Assay type in all cases: physicochemical
[1] = NGI data of the NGI v. Spraytec comparison; settings: Table 5F
[2] = Particle size distribution by Spraytec using low resistance device; settings: 90 L/min, 2.7 second actuation, 5 tests
Description: Particle size distribution of ASA/MgST dry powder composition with 0.5%, 1%, 5%, and 10% w/w MgST, spray-dried Aspirin 85%/Leucine 15% Formulation (036 or 36)>Aspirin 95%/Leucine 5% Formulation (046 or 46), and micronized ASA were measured by Spraytec using low resistance device, at 90 L/min flow rate with 2.7 second actuation time with a step of device/mouthpiece/USP/throat/IC/DUSA, and 5 tests for each composition (Table 5E).

[3] = Colloid-probe atomic force microscopy, force of cohesion; settings: five drug probes per formulation against smooth crystalline aspirin surface
Source text: Colloid-probe atomic force microscopy studies (AFM) was used to measure the cohesive surface interfacial forces (FIG. 6). Five individual particles from each of powder formulation was attached to tipless cantilevers. These were designated as drug probes, which were then interacted with a smooth surface of crystalline aspirin. In this way, it was possible to measure the force of cohesion of the particles of the different formulations (FIG. 6), which followed the following rank order: […]

CC(=O)Oc1ccccc1C(=O)O [Micronized ASA, acetylsalicylic acid]
NGI FPF [1]: 20.71%
NGI MMAD [1]: 4.86 μm
% V < 5 μm [2]: 54.7 (3.15) %
% V < 10 μm [2]: 88.99 (2.05) %
Dv(10) [2]: 1.9 (0.08) μm
Dv(50) [2]: 4.63 (0.24) μm and 4.62 (0.24) μm
Dv(90) [2]: 10.32 (0.65) μm
force of cohesion, rank order [3]: >ASA co-micronised with 0.5% magnesium stearate
